Assay results: patent US7071178B2, “Use of vitamin D-derivatives in the treatment of osteoporosis and related bone disorders, as well as novel vitamin D3-derivatives” (Leo Pharmaceutical Products, Ltd., priority 2000, dated 2006)

Test system: OVX rats
Experiment: OVX rat model on osteoporosis: biomechanical test of bone strength
Format: in vivo
Set-up: key to Effect on bone strength, Femor. Meta., vs 1,25D3 / Effect on bone strength, L3, vs 1,25D3 / Effect on bone strength, Femor. Dia., vs 1,25D3: <: less effect than the reference dose of 1,25D3 (0.25 ug/kg); <=: less or the same effect as the reference dose of 1,25D3 (0.25 ug/kg); =: same effect as the reference dose of 1,25D3 (0.25 ug/kg); =>: same or better effect as the reference dose of 1,25D3 (0.25 ug/kg); >: better effect than the reference dose of 1,25D3 (0.25 ug/kg)
Details: oral 28 days
Procedure: FIG. 2 is a graphic illustration of the biomechanical test of the lumbal vertebrae, L3. The vertebral body cylinder were tested along the proximal-distal axis in a materials testing machine (Alwetron TCT 5, Lorentzen and Wettre, Stockholm, Sweden) at a constant deformation rate of 2 mm/min. During compression, load-deformation curves were recorded and stored on a PC (ProLinea 4/33, Compaq, USA). Fmax is the maximum point on the load deforming curve.
The rats were treated according to the OVX rat model described herein, and wherein the animal groups received treatment according to the same scheme as for FIG. 1. A statistical analysis is shown in the graphic illustration, cf. description for FIG. 1.
Pharmacological Methods—OVX Rat Model on Osteoporosis
To study bone anabolic properties and the effects of the vitamin D analogues of the present invention in preventing or treating demineralisation of the skeleton in vivo, a 4 weeks OVX rat model was used:
An ovariectomized rat model (OVX model), orally dosed for 28 days is useful for screening of vitamin D analogues. In this model ovariectomy produces alterations in the cancellous network identical to those seen in the human skeleton during ageing and the menopause. Besides this the model and the following analyses can be performed under very standardised conditions. 1α,25(OH)2D3 is used as a reference compound.
Female Sprague Dawley rats weighing approximately 130 g (40–45 days old) were purchased from MB, Ejby, Denmark. The animals were fed a commercial diet and allowed free access to food and drinking water. The animals were split into groups receiving differential treatment.
The animals were anaesthetised and ovariectomized through a dorsal incision.
Treatment of OVX animals was started 2 weeks after ovariectomy.
The animals were dosed orally for 28 days. The oral dosage was by gavage 0.1 ml/100 g bodyweight. The bodyweight of each animal was recorded every day prior to oral dosing. On day 7, 14, 21 and 28 the animals were housed separately for 24 hours in metabolic cages for collection of urine. Urine was frozen at −20° C. for later calcium measurement.
Left and right femur, left and right tibia, lumbal vertebrae 3 and 4 (L3 and L4) were removed and cleaned for all soft- and connecting tissue. Left femur, left and right tibia and L4 were dried in an oven at 50–60° C. for at least 24 hours and immediately hereafter weighed. The bones were burned in an oven at 800° C. for 4 hours, dissolved in 1N HCl, and analysed for calcium content in a Hitachi 911 autoanalyser. Right femur and L3 were kept in 0.9% NaCl and frozen at −20° C. for later biomechanical testing performed by Jesper Skovhus Thomsen and Lis Mosekilde at Aarhus University, measuring various biomechanical parameters.
Effect of Compound 145 compared to the reference dose of 1,25(OH)2D3 (1,25D3) (0.25 μg/kg) and compared to the OVX control group (shown in %) are shown in Tables 1 to 4.

**Q.** How did the “Effect on bone strength, Femor. Dia., vs 1,25D3” value (from here on “Effect … Femor. Dia., vs 1,25D3”) (1 μg/kg, MTR/16) turn out when C=C1C(=CC=C2CCCC3(C)C2CCC3C(C)CSc2ccc(C(C)(C)O)cc2)CC(O)CC1O [Compound 145, 1(S),3(R)-Dihydroxy-20(R)-(4-((1-hydroxy-1-methyl)ethyl)phenylthiomethyl)-9,10-seco-pregna-5(Z),7(E),10(19)-triene] was run?
**A.** <=

**Q.** And the “Effect on bone strength, Femor. Meta., vs 1,25D3” value (shortened to “Effect … Femor. Meta., vs 1,25D3”) (1 μg/kg, MTR/16)?
**A.** <

**Q.** And the “Effect on bone strength, L3, vs 1,25D3” value (1 μg/kg, MTR/16)?
**A.** <

**Q.** And the “Effect … Femor. Dia., vs 1,25D3” value (10 μg/kg, MTR/16)?
**A.** =

**Q.** And the “Effect … Femor. Meta., vs 1,25D3” value (10 μg/kg, MTR/16)?
**A.** =

**Q.** And the “Effect on bone strength, L3, vs 1,25D3” value (10 μg/kg, MTR/16)?
**A.** >

**Q.** And the “Effect … Femor. Dia., vs 1,25D3” value (10 μg/kg, MTR/23)?
**A.** <=

**Q.** What about the “Effect on bone strength, Femor. Dia., vs Ovx contr” value (“Effect … Femor. Dia., vs Ovx contr” for short) (10 μg/kg, MTR/23) of the same molecule?
**A.** −5%

**Q.** And the “Effect … Femor. Meta., vs 1,25D3” value (10 μg/kg, MTR/23)?
**A.** <

**Q.** And the “Effect on bone strength, Femor. Meta., vs Ovx contr” value (“Effect … Femor. Meta., vs Ovx contr” below) (10 μg/kg, MTR/23)?
**A.** 6%

**Q.** What about the “Effect on bone strength, L3, vs 1,25D3” value (10 μg/kg, MTR/23) of the same molecule?
**A.** =

**Q.** And the “Effect on bone strength, L3, vs Ovx contr” value (“Effect … L3, vs Ovx contr” below) (10 μg/kg, MTR/23)?
**A.** 23%

**Q.** What about the “Effect … Femor. Dia., vs 1,25D3” value (25 μg/kg, MTR/27) of the same molecule?
**A.** >

**Q.** And the “Effect … Femor. Dia., vs Ovx contr” value (25 μg/kg, MTR/27)?
**A.** 9%

**Q.** And the “Effect … Femor. Meta., vs 1,25D3” value (25 μg/kg, MTR/27)?
**A.** >

**Q.** And the “Effect … Femor. Meta., vs Ovx contr” value (25 μg/kg, MTR/27)?
**A.** 39%

**Q.** What about the “Effect on bone strength, L3, vs 1,25D3” value (25 μg/kg, MTR/27) of the same molecule?
**A.** <=

**Q.** And the “Effect … L3, vs Ovx contr” value (25 μg/kg, MTR/27)?
**A.** 27%

**Q.** What about the “Effect … Femor. Dia., vs 1,25D3” value (50 μg/kg, MTR/23) of the same molecule?
**A.** =

**Q.** What about the “Effect … Femor. Dia., vs Ovx contr” value (50 μg/kg, MTR/23) of the same molecule?
**A.** −1%

**Q.** What about the “Effect … Femor. Meta., vs 1,25D3” value (50 μg/kg, MTR/23) of the same molecule?
**A.** >

**Q.** And the “Effect … Femor. Meta., vs Ovx contr” value (50 μg/kg, MTR/23)?
**A.** 43%

**Q.** And the “Effect on bone strength, L3, vs 1,25D3” value (50 μg/kg, MTR/23)?
**A.** >

**Q.** What about the “Effect … L3, vs Ovx contr” value (50 μg/kg, MTR/23) of the same molecule?
**A.** 45%

**Q.** What about the “Effect … Femor. Dia., vs 1,25D3” value (50 μg/kg, MTR/27) of the same molecule?
**A.** >

**Q.** And the “Effect … Femor. Dia., vs Ovx contr” value (50 μg/kg, MTR/27)?
**A.** 5%

**Q.** And the “Effect … Femor. Meta., vs 1,25D3” value (50 μg/kg, MTR/27)?
**A.** >

**Q.** What about the “Effect … Femor. Meta., vs Ovx contr” value (50 μg/kg, MTR/27) of the same molecule?
**A.** 31%

**Q.** And the “Effect on bone strength, L3, vs 1,25D3” value (50 μg/kg, MTR/27)?
**A.** <

**Q.** And the “Effect … L3, vs Ovx contr” value (50 μg/kg, MTR/27)?
**A.** 22%

**Q.** What about the “Effect … Femor. Dia., vs 1,25D3” value (75 μg/kg, MTR/27) of the same molecule?
**A.** >

**Q.** And the “Effect … Femor. Dia., vs Ovx contr” value (75 μg/kg, MTR/27)?
**A.** 4%

**Q.** What about the “Effect … Femor. Meta., vs 1,25D3” value (75 μg/kg, MTR/27) of the same molecule?
**A.** >>

**Q.** What about the “Effect … Femor. Meta., vs Ovx contr” value (75 μg/kg, MTR/27) of the same molecule?
**A.** 50%

**Q.** And the “Effect on bone strength, L3, vs 1,25D3” value (75 μg/kg, MTR/27)?
**A.** =

**Q.** And the “Effect … L3, vs Ovx contr” value (75 μg/kg, MTR/27)?
**A.** 38%

**Q.** What about the “Effect … Femor. Dia., vs 1,25D3” value (100 μg/kg, MTR/23) of the same molecule?
**A.** =

**Q.** And the “Effect … Femor. Dia., vs Ovx contr” value (100 μg/kg, MTR/23)?
**A.** −3%

**Q.** What about the “Effect … Femor. Meta., vs 1,25D3” value (100 μg/kg, MTR/23) of the same molecule?
**A.** =

**Q.** And the “Effect … Femor. Meta., vs Ovx contr” value (100 μg/kg, MTR/23)?
**A.** 21%

**Q.** And the “Effect on bone strength, L3, vs 1,25D3” value (100 μg/kg, MTR/23)?
**A.** >

**Q.** And the “Effect … L3, vs Ovx contr” value (100 μg/kg, MTR/23)?
**A.** 37%
